{"source": "patent US7417025B2", "about": "“Use of poly-α2,8-sialic acid mimetic peptides to modulate NCAM functions” (Centre National de la Recherche Scientifique, priority 2002, dated 2008)", "key": {"[1]": {"system": "subventricular zone explants (neuronal precursors)", "experiment": "Subventricular zone (SVZ) explant culture: cell migration in vitro", "assay_type": "cell-based, mouse", "settings": "for Rate of migration of the neuronal precursors compared to the corresponding control peptide: FIG. 7, controls reverse p65 and p22", "description": "Cultures of SVZ explants were performed as described in Chazal et al., precited. Briefly, 1-day-old mice were killed by rapid decapitation. Brains were dissected out and sectionned by Vibratome (Leica). The SVZ from the lateral wall of the anterior lateral ventricle horn was dissected out in HBSS medium (LIFE TECHNOLOGIES) and cut into 200-300 μm diameter explants. The explants were mixed with Matrigel (BECKTON DICKINSON) and cultured in four-well dishes. After polymerisation, the gel was overlaid with 400 μl of serum-free medium containing B-27 supplement (LIFE TECHNOLOGIES), in the presence or the absence of 40 μM of peptides (p65, p66, reverse p65, p21 or p22) and 70 U of Endo N per milliliter.\nAfter 48 h in culture, explants were examining directly (SVZ) or after overnight fixation with a 4% paraformaldehyde solution in PBS and immunostaining (DRGs). Observation was done using 2, 5×, 5×, 10× and 32× objectives (Axiovert 35M, ZEISS). Images were collected with a video camera (Cool View, PHOTONIC SCIENCE) and analysed using image-processing software (Visiolab1000, BIOCOM). Mean migration distance (calculated on five different experiments, including at least five explants per condition) or mean length of the longest neurite (calculated on two different experiments, including at least eight explants per condition), was the distance in micrometers between the explant edge and the border of the cell migration front. Four measurements were performed for each explant. The significance of the differences between the control and the different experimental conditions was calculated by Student's t test."}, "[2]": {"system": "GFP positive SVZ cells migrating to the olfactory bulb", "experiment": "Transplantation of GFP SVZ explants: cell migration in vivo", "design": "species or system mouse", "description": "100 μm diameter explants of 1-day-old GFP mice SVZ were incubated fifteen minutes in DMEM supplemented with 10% fetal bovine serum in presence of 0.01 M of p65 or reverse peptide and stereotaxically grafted (0.5 μl) into six weeks old mice SVZ as described in Lois and Alvarez-Buylla (Science, 1994, 264, 1145-1 148). Three or four days after the graft, animals were perfused intracardiacally with a 4% paraformaldehyde solution in PBS. Brains were dissected out, postfixed, cryoprotected, and freezed in isopentane. Sagittal serial sections (12 μm) were cut with a Leica microtome and immunostained as described above. GFP cells arriving in the olfactory bulb after three days were observed using UV fluorescence with a 40× objective (Axioscope, ZEISS) and counted on two different experiments (four animals per condition). The significance of the difference between the two conditions was calvalated by Student's t test.\nThe effect of PSA mimetic peptides on cell migration in vivo was analysed by grafting tissue and evaluating migration of SVZ cells. Small pieces of SVZ tissue (100 μm diameter) from 1-day-old GFP mice were grafted in the SVZ area of adult mice, in the presence of p65, p65 reverse peptide or in the absence of peptide. The results are illustrated in FIG. 8."}, "[3]": {"system": "spinal cord dorsal hemisection", "experiment": "Functional recovery from spinal cord injury (BBB test, rotarod test)", "assay_type": "in vivo, mouse", "description": "Male Swiss-CD1 mice (8-10 week-old) were anesthetized with a mixture of ketamine and xylazine. The spinal cord had been exposed by making a midline incision of the skin, and by retracting the paravertebral muscles. A laminectomy was performed at the T7-T8 level and the spinal cord exposed. Using iridectomy scissors, a bilateral dorsal hemisection, transecting left and right dorsal finiculus, the dorsal horns, but sparing most parts of the ventral fimiculus, was performed, resulting in a complete transection of the dorsomedial main Cortico Spinal Tract (CST). For the series of mice receiving the peptides a Surgicoll pledget saturated with 10 μl of either p65 or reverse p65 (10 μM) peptides was applied over the transection site and covered with petroleum jelly to prevent diffusion. All inside muscle layer were sutured using fine thread. Skin was sutured using surgical staples. […]\nFunctional evaluation of the animals was performed at day (D) D1, D4, D7, D14, D21, D28, D35, during the first week following the spinal cord lesion and then on a weekly basis until D35, by two different observers blinded to group identity. Locomotor recovery was evaluated using the BBB test (Basso, Beattie and Bresnahan test; Basso et al., Restor. Neurol. Neurosci, 2002, 5, 189-218). […]"}, "[4]": {"system": "30H12 monoclonal antibody", "experiment": "Competitive binding to PSA-NCAM expressing cells (30H12)", "design": "dose or concentration left out as unconfirmed", "description": "FIGS. 12B, 12C and 12D: competitive binding to PSA-NCAM expressing cells. B: pre-incubation of p65 (1 mM) or p66 (1 mM) with MenB anti-PSA antibody. C: 30H12 anti-PSA antibody without peptide. […]\nThe specificity of p65 and p66 peptides was tested in a competition assay using anti-PSA antibodies and PSA-NCAM expressing cells. […] The binding specificity was examined in greater detail by testing peptide recognition by another anti-PSA mononclonal antibody (MenB). […] Thus, p65 and p66 mimotopes appear to be specific for a unique (idiotypic) determinant."}}, "data": [{"sequence": "DSPLVPFIDFHP [p21]", "values": [{"measurement": "Rate of migration of the neuronal precursors compared to the corresponding control peptide", "setting": "[1]", "value": "significant decrease"}]}, {"sequence": "CSSVTAWTTGCG [p65]", "values": [{"measurement": "Rate of migration of the neuronal precursors compared to the corresponding control peptide", "setting": "[1]", "value": "significant increase"}, {"measurement": "Rate of migration of the neuronal precursors and chain-like arrangement", "setting": "[1]; SVZ explants in Matrigel, FIG. 4", "value": "increases the rate of migration"}, {"measurement": "Migration of precursors from NCAM −/− mice", "setting": "[1]; SVZ explants of NCAM −/− mice, FIG. 6", "value": "did not reverse the impaired migration"}, {"measurement": "Concentration from which the optimal effect on cell migration is observed", "setting": "[1]; dose-response curve", "value": "≥ 0.4", "unit": "µM"}, {"measurement": "PSA-dependence of the migration effect", "setting": "[1]; with endo N treatment", "value": "abolished by endo N treatment"}, {"measurement": "Increase of the number of GFP positive cells present in the olfactory bulb by comparison with the control", "setting": "[2]; 3 days after the graft", "value": 17, "unit": "times"}, {"measurement": "Number of GFP positive cells migrating to the olfactory bulb", "setting": "[2]; by comparison with the control, from 3 days post-engraftment", "value": "increases significantly"}, {"measurement": "Rotarod test (fine motor coordination)", "setting": "[3]; D35", "value": "beneficial effect on recovery"}, {"measurement": "BBB score (locomotor recovery)", "setting": "[3]; versus p65-reverse controls, starting from D14 post-injury, 10 μl of 10 μM peptide at lesion", "value": "significantly higher"}, {"measurement": "Binding of 30H12 monoclonal antibody to PSA-NCAM expressing cells after pre-incubation with peptide", "setting": "[4]", "value": "prevented its binding"}]}]}
